From the NIST ThermoML archive (doi:10.1021/acs.jced.8b00063)
“And” between values parts separate entries of the source, which are not always exact repeats. Equal values may be shown once.

What was measured:
[1] = refractive index (Na D-line) (dimensionless); xn = mol fraction of the nth substance listed; details: 293.15 K, 93.9 kPa, Liquid, Standard Abbe refractometry
[2] = refractive index (Na D-line) (dimensionless); details: Liquid, Standard Abbe refractometry
[3] = Liquid, Ebulliometric method (Recirculating still)

COc1ccccc1 [anisole] + CC(=O)OC(C)C
Details	refractive index
[1], x2 = 0	1.5167

CCOC(C)=O [ethyl acetate] + COc1ccccc1
Details	refractive index
[1], x1 = 1	1.3724

CCOC(C)=O [ethyl acetate]
[2]
Details	refractive index
293.15 K, 93.9 kPa	1.3724
298.15 K, 101.33 kPa	1.37244

Details	vapor or sublimation pressure [kPa]
[3], 347.92 K	93.9

COc1ccccc1 [anisole] + COC(C)=O
[1]
Details	refractive index
x2 = 0	1.5168
x2 = 0.1432	1.4995
x2 = 0.1704	1.497
x2 = 0.2986	1.4855
x2 = 0.3004	1.4826
x2 = 0.3323	1.4777
x2 = 0.41	1.4692
x2 = 0.4439	1.4625
x2 = 0.5057	1.4542
x2 = 0.5405	1.451
x2 = 0.6003	1.4372
x2 = 0.6354	1.4327
x2 = 0.6972	1.4233
x2 = 0.814	1.3994
x2 = 0.8577	1.3909
x2 = 0.9391	1.3743

CCCOC(C)=O [propyl ethanoate] + COc1ccccc1
Details	refractive index
[1], x1 = 1	1.3841

COc1ccccc1 [anisole] + CCOC(C)=O
[1]
Details	refractive index
x2 = 0	1.5168
x2 = 0.1318	1.5002
x2 = 0.1651	1.4954
x2 = 0.1818	1.4935
x2 = 0.2131	1.4896
x2 = 0.2301	1.4867
x2 = 0.3334	1.4735
x2 = 0.3472	1.4712
x2 = 0.4119	1.4619
x2 = 0.4709	1.4548
x2 = 0.4899	1.4518
x2 = 0.5481	1.4426
x2 = 0.6353	1.431
x2 = 0.6467	1.4243
x2 = 0.718	1.4201
x2 = 0.7382	1.4142
x2 = 0.8354	1.3989
x2 = 0.9091	1.3874

COC(C)=O [methyl ethanoate] + COc1ccccc1
Details	refractive index
[1], x1 = 1	1.3615

CC(=O)OC(C)C [1-methylethyl ethanoate] + COc1ccccc1
[1]
Details	refractive index
x1 = 0.1058	1.5013
x1 = 0.1227	1.499
x1 = 0.1703	1.4924
x1 = 0.1794	1.4915
x1 = 0.2163	1.4872
x1 = 0.2803	1.4768
x1 = 0.3303	1.4727
x1 = 0.3684	1.4673
x1 = 0.4254	1.4561
x1 = 0.4928	1.4481
x1 = 0.5116	1.4445
x1 = 0.5769	1.4361
x1 = 0.6338	1.4272
x1 = 0.7247	1.4154
x1 = 0.8136	1.4026
x1 = 0.9006	1.3903
x1 = 1	1.3774

COc1ccccc1 [anisole] + CCCOC(C)=O
[1]
Details	refractive index
x2 = 0	1.5168
x2 = 0.1119	1.5019
x2 = 0.1399	1.4979
x2 = 0.1575	1.4954
x2 = 0.2187	1.4875
x2 = 0.2418	1.4844
x2 = 0.3387	1.4706
x2 = 0.354	1.4687
x2 = 0.4168	1.4603
x2 = 0.4759	1.4525
x2 = 0.533	1.4451
x2 = 0.5833	1.4381
x2 = 0.6096	1.435
x2 = 0.6683	1.4268
x2 = 0.7081	1.4203
x2 = 0.8047	1.4093
x2 = 0.8978	1.3968

CC(=O)OC(C)C [1-methylethyl ethanoate]
[2]
Details	refractive index
293.15 K, 93.9 kPa	1.3774
298.15 K, 101.33 kPa	1.37739

Details	vapor or sublimation pressure [kPa]
[3], 359.68 K	93.9

CCCOC(C)=O [propyl ethanoate]
[2]
Details	refractive index
293.15 K, 93.9 kPa	1.3841
298.15 K, 101.33 kPa	1.38406

Details	vapor or sublimation pressure [kPa]
[3], 372.17 K	93.9

COC(C)=O [methyl ethanoate]
[2]
Details	refractive index
293.15 K, 93.9 kPa	1.3615
298.15 K, 101.33 kPa	1.36146

Details	vapor or sublimation pressure [kPa]
[3], 327.9 K	93.9

COc1ccccc1 [anisole]
[2]
Details	refractive index
293.15 K, 93.9 kPa	1.5168 and 1.5167
298.15 K, 101.33 kPa	1.51554

Details	vapor or sublimation pressure [kPa]
[3], 423.92 K	93.9
